Test results reported in patent publication US6489469B1, “Method for storing or transporting erythritol solution” (Nikken Chemicals Co., Ltd., priority 1999, dated 2002).

Test system: Bacillus stearothermophilus IFO 12550
Assay: Viable Count of Bacillus stearothermophilus IFO 12550 in Erythritol Solution (heat resistant bacteria)
Format: cell-based
Method: Erythritol solutions of respective concentrations in the range of from 30 to 70% were prepared. To these was inoculated Bacillus stearothermophilus IFO 12550 as a heat resistant bacterium in a population (concentration) of 10,000 cells/mL or more.
After the inoculation, the solutions were stored at 50, 60 or 75° C., respectively, for 56 days and the number of viable cell was determined daily. The determination of the number of viable cell was performed by in the same manner as in Example 1.

OC[C@@H](O)[C@@H](O)CO [Erythritol Solution, erythritol]
The Number of Viable Cell (50° C., 40% w/w, Day 0): 10000 or more cells/mL | The Number of Viable Cell (50° C., 40% w/w, Day 3): 40 cells/mL | The Number of Viable Cell (50° C., 40% w/w, Day 7): 50 cells/mL | The Number of Viable Cell (50° C., 40% w/w, Day 14): 50 cells/mL | The Number of Viable Cell (50° C., 40% w/w, Day 28): 50 cells/mL | The Number of Viable Cell (50° C., 40% w/w, Day 56): 60 cells/mL | The Number of Viable Cell (50° C., 50% w/w, Day 0): 10000 or more cells/mL | The Number of Viable Cell (50° C., 50% w/w, Day 3): 100 cells/mL | The Number of Viable Cell (50° C., 50% w/w, Day 7): 100 cells/mL | The Number of Viable Cell (50° C., 50% w/w, Day 14): 50 cells/mL | The Number of Viable Cell (50° C., 50% w/w, Day 28): 70 cells/mL | The Number of Viable Cell (50° C., 50% w/w, Day 56): 120 cells/mL | The Number of Viable Cell (60° C., 30% w/w, Day 0): 10000 or more cells/mL | The Number of Viable Cell (60° C., 30% w/w, Day 3): 90 cells/mL | The Number of Viable Cell (60° C., 30% w/w, Day 7): 60 cells/mL | The Number of Viable Cell (60° C., 30% w/w, Day 14): 90 cells/mL | The Number of Viable Cell (60° C., 30% w/w, Day 28): 300 cells/mL | The Number of Viable Cell (60° C., 30% w/w, Day 56): 0 cells/mL | The Number of Viable Cell (60° C., 40% w/w, Day 0): 10000 or more cells/mL | The Number of Viable Cell (60° C., 40% w/w, Day 3): 60 cells/mL | The Number of Viable Cell (60° C., 40% w/w, Day 7): 70 cells/mL | The Number of Viable Cell (60° C., 40% w/w, Day 14): 200 cells/mL | The Number of Viable Cell (60° C., 40% w/w, Day 28): 320 cells/mL | The Number of Viable Cell (60° C., 40% w/w, Day 56): 0 cells/mL | The Number of Viable Cell (60° C., 50% w/w, Day 0): 10000 or more cells/mL | The Number of Viable Cell (60° C., 50% w/w, Day 3): 100 cells/mL | The Number of Viable Cell (60° C., 50% w/w, Day 7): 150 cells/mL | The Number of Viable Cell (60° C., 50% w/w, Day 14): 200 cells/mL | The Number of Viable Cell (60° C., 50% w/w, Day 28): 330 cells/mL | The Number of Viable Cell (60° C., 50% w/w, Day 56): 0 cells/mL | The Number of Viable Cell (60° C., 60% w/w, Day 0): 10000 or more cells/mL | The Number of Viable Cell (60° C., 60% w/w, Day 3): 130 cells/mL | The Number of Viable Cell (60° C., 60% w/w, Day 7): 100 cells/mL | The Number of Viable Cell (60° C., 60% w/w, Day 14): 150 cells/mL | The Number of Viable Cell (60° C., 60% w/w, Day 28): 120 cells/mL | The Number of Viable Cell (60° C., 60% w/w, Day 56): 0 cells/mL | time after which all the cells died (75° C.): 14 days | The Number of Viable Cell (75° C., 30% w/w, Day 0): 10000 or more cells/mL | The Number of Viable Cell (75° C., 30% w/w, Day 3): 350 cells/mL | The Number of Viable Cell (75° C., 30% w/w, Day 7): 340 cells/mL | The Number of Viable Cell (75° C., 30% w/w, Day 14): 0 cells/mL | The Number of Viable Cell (75° C., 30% w/w, Day 28): 0 cells/mL | The Number of Viable Cell (75° C., 30% w/w, Day 56): 0 cells/mL | The Number of Viable Cell (75° C., 40% w/w, Day 0): 10000 or more cells/mL | The Number of Viable Cell (75° C., 40% w/w, Day 3): 330 cells/mL | The Number of Viable Cell (75° C., 40% w/w, Day 7): 490 cells/mL | The Number of Viable Cell (75° C., 40% w/w, Day 14): 0 cells/mL | The Number of Viable Cell (75° C., 40% w/w, Day 28): 0 cells/mL | The Number of Viable Cell (75° C., 40% w/w, Day 56): 0 cells/mL | The Number of Viable Cell (75° C., 50% w/w, Day 0): 10000 or more cells/mL | The Number of Viable Cell (75° C., 50% w/w, Day 3): 220 cells/mL | The Number of Viable Cell (75° C., 50% w/w, Day 7): 590 cells/mL | The Number of Viable Cell (75° C., 50% w/w, Day 14): 0 cells/mL | The Number of Viable Cell (75° C., 50% w/w, Day 28): 0 cells/mL | The Number of Viable Cell (75° C., 50% w/w, Day 56): 0 cells/mL | The Number of Viable Cell (75° C., 60% w/w, Day 0): 10000 or more cells/mL | The Number of Viable Cell (75° C., 60% w/w, Day 3): 170 cells/mL | The Number of Viable Cell (75° C., 60% w/w, Day 7): 480 cells/mL | The Number of Viable Cell (75° C., 60% w/w, Day 14): 0 cells/mL | The Number of Viable Cell (75° C., 60% w/w, Day 28): 0 cells/mL | The Number of Viable Cell (75° C., 60% w/w, Day 56): 0 cells/mL | The Number of Viable Cell (75° C., 70% w/w, Day 0): 10000 or more cells/mL | The Number of Viable Cell (75° C., 70% w/w, Day 3): 140 cells/mL | The Number of Viable Cell (75° C., 70% w/w, Day 7): 210 cells/mL | The Number of Viable Cell (75° C., 70% w/w, Day 14): 0 cells/mL | The Number of Viable Cell (75° C., 70% w/w, Day 28): 0 cells/mL | The Number of Viable Cell (75° C., 70% w/w, Day 56): 0 cells/mL | growth of the bacteria (all the concentrations, temperature of 50° C. or more): inhibited
